We go through 16 compounds from patent US6630485B2, “p38 map kinase inhibitors” (Syntex (U.S.A.) LLC, priority 1997, dated 2003).

For data set [1], the target named is T1, p38 MAP kinase (Homo sapiens, UniProt Q16539).
T1 construct: made in house; host or cells: E. coli
As to the kind of experiment: Inhibition of p-38 (MAP) kinase, in vitro assay (33P transfer from γ-33P-ATP to Myelin Basic Protein). The format is biochemical. Conditions: phosphorylated recombinant p38 MAP kinase, MBP substrate, 30° C., read-out: IC50 (concentration causing 50% inhibition of the p-38 enzyme). The procedure:
The p-38 MAP kinase inhibitory activity of compounds of this invention in vitro was determined by measuring the transfer of the γ-phosphate from γ-^33P-ATP by p-38 kinase to Myelin Basic Protein (MBP), using the a minor modification of the method described in Ahn, N. G.; et al. J. of Biol. Chem. Vol. 266(7), 4220-4227, (1991)
The phosphorylated form of the recombinant p38 MAP kinase was expressed with SEK-1 and MEKK in E. coli (see, Khokhlatchev, A. et al. J. of Biol. Chem. Vol. 272(17), 11057-11062, (1997) and then purified by affinity chromatography using a Nickel column.
The phosphorylated p38 MAP kinase was diluted in kinase buffer (20 mM 3-(N-morpholino)propanesulfonic acid, pH 7.2, 25 mM β-glycerol phosphate, 5 mM ethylene glycol-bis(beta-aminoethyl ether)-N,N,N′,N′-tetraacetic acid, 1 mM sodium vanadate, 1 mM dithiothreitol, 40 mM magnesium chloride). Test compound dissolved in DMSO or only DMSO (control) was added and the samples were incubated for 10 min. at 30° C. The kinase reaction was initiated by the addition of a substrate cocktail containing MBP and γ-^33P-ATP. After incubating for an additional 20 min. at 30° C., the reaction was terminated by adding 0.75% phosphoric acid. The phosphorylated MBP was then separated from the residual γ-^33P-ATP using a phosphocellulose membrane (Millipore, Bedfrod, Mass.) and quantitated using a scintillation counter (Packard, Meriden, Conn.).
The p-38 inhibitory activities (expressed as IC50, the concentration causing 50% inhibition of the p-38 enzyme being assayed) of some compounds of the invention is: […]

Data set [2] has as its system TNF-α. Briefly: Inhibition of LPS-induced TNF-α production in THP1 cells, in vitro assay (ELISA). The data set is classed as cell-based. Particulars: Homo sapiens; THP-1 cells, LPS 0.5 μg/ml, 2 h; read-out: IC50 (half-maximal reduction in 450 nm absorbance, TNF-α ELISA). As for the experimental part: The ability of the compounds of this invention to inhibit the TNF-α release was determined using a minor modification of the methods described in described in Blifeld, C. et al. Transplantation, Vol. 51(2), 498-503, (1991).
THP-1 cells were suspended in culture medium [RPMI (Gibco-BRL, Gailthersburg, Md.) containing 15% fetal bovine serum, 0.02 mM 2-mercaptoethanol], at a concentration of 2.5×10^6 cells/ml and then plated in 96 well plate (0.2 ml aliquots in each well). Test compounds were dissolved DMSO and then diluted with the culture medium such that the final DMSO concentration was 5%. 20 μl aliquots of test solution or only medium with DMSO (control) were added to each well. The cells were incubated for 30 min., at 37° C. LPS (Sigma, St. Louis, Mo.) was added to the wells at a final concentration of 0.5 μg/ml, and cells were incubated for an additional 2 h. At the end of the incubation period, culture supernatants were collected and the amount of TNF-α present was determined using an ELISA assay as described below.
The amount of human TNF-α present was determined by a specific trapping ELISA assay using two anti-TNF-α antibodies (2TNF-H22 and 2TNF-H34) described in Reimund, J. M., et al. GUT Vol. 39(5), 684-689 (1996).
Polystyrene 96-well plates were coated with 50 μl per well of antibody 2TNF-H22 in PBS (10 μg/ml) and incubated in a humidified chamber at 4° C. overnight. The plates were washed with PBS and then blocked with 5% nonfat-dry milk in PBS for 1 hour at room temperature and washed with 0.1% BSA (bovine serum albumin) in PBS.
TNF standards were prepared from a stock solution of human recombinant TNF-α (R&D Systems, Minneapolis, Minn.). The concentration of the standards in the assay began at 10 ng/ml followed by 6 half log serial dilution's.
25 μl aliquots of the above culture supernatants or TNF standards or only medium (control) were mixed with 25 μl aliquots of biotinylated monoclonal antibody 2TNF-H34 (2 μg/ml in PBS containing 0.1% BSA) and then added to each well. The samples were incubated for 2 h at room temperature with gentle shaking and then washed 3 times with 0.1% BSA in PBS. 50 μl of peroxidase-streptavidin (Zymed, S. San Francisco, Calif.) solution containing 0.416 μg/ml of peroxidase-streptavidin and 0.1% BSA in PBS was added to each well. The samples were incubated for an additional 1 h at room temperature and then washed 4 times with 0.1% BSA in PBS. 50 μl of O-phenylenediamine solution (1 μg/ml O-phenylene-diamine and 0.03% hydrogen peroxide in 0.2M citrate buffer pH 4.5) was added to each well and the samples were incubated in the dark for 30 min., at room temperature. Optical density of the sample and the reference were read at 450 nm and 650 nm, respectively. TNF-α levels were determined from a graph relating the optical density at 450 nm to the concentration used.
The IC50 value was defined as the concentration of the test compound corresponding to half-maximal reduction in 450 nm absorbance.

Data set [3] has as its system TNF-α. Briefly: Inhibition of LPS-induced TNF-α production in mice, in vivo assay. Particulars: female BALB/c mice, dosed orally at 30 mg, 30 min before 20 μg LPS i.p., serum TNF-α after 1.5 h. As for the experimental part:
The ability of the compounds of this invention to inhibit the TNF-α release, in vivo, was determined using a minor modification of the methods described in described in Zanetti, G.; Heumann, D., et. al., “Cytokine production after intravenous or peritoneal Gram-negative bacterial challenge in mice,” J. Immunol., 148, 1890, (1992) and Sekut, L., Menius, J. A., et. al., “Evaluation of the significance of elevated levels of systemic and localized tumor necrosis factor in different animal models of inflammation,” J. Lab. Clin. Med., 124, 813, (1994).
Female BALB/c mice weighing 18-21 grams (Charles River, Hollister, Calif.) were acclimated for one week. Groups containing 8 […] each were dosed orally either with the test compounds dissolved in an aqueous vehicle containing 0.9% sodium chloride, 0.5% sodium carboxymethyl-cellulose, 0.4% polysorbate 80, 0.9% benzyl alcohol (CMC vehicle) or only vehicle (control group). After 30 min., the mice were injected intraperitoneally with 20 μg of LPS (Sigma, St. Louis, Mo.). After 1.5 h, the mice were sacrificed by CO2 inhalation and blood was harvested by cardiocentesis. Blood was clarified by centrifugation at 15,600×g for 5 min., and sera were transferred to clean tubes and frozen at −20° C. until analyzed for TNF-α by ELISA assay (Biosource International, Camarillo, Calif.) following the manufacturer's protocol.
The TNF-α inhibitory activity of test materials, i.e., the measure of the TNF-α content in the test group relative to the vehicle treated group (control group) at 30 mg was: […]

T1 sequence (Q16539 whole entry): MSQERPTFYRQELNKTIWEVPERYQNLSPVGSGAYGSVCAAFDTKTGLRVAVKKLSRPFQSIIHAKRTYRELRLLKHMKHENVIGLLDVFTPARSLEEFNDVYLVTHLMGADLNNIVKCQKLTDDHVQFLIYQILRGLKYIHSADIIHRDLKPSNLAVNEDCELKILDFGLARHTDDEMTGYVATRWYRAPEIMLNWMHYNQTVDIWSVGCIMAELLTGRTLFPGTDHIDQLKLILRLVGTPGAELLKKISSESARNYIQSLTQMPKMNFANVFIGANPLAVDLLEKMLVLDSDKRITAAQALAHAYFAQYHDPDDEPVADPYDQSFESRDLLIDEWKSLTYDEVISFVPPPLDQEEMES

As to `N#CCCCn1c(-c2ccncc2)c(-c2ccc(F)cc2)c2nccnc21` [compound 108], the IC50 in data set [1] is 747 nM; in data set [2] it was 8830 nM.
For orientation: melting point means the temperature, or range, at which the solid turns liquid. In turn, `On1c(-c2ccncc2)c(-c2ccc(F)cc2)c2ncccc21` [compound 1, 3-(4-Fluorophenyl)-1-hydroxy-2-(pyridin-4-yl)-1H-pyrrolo[3,2-b]pyridine] had a melting point of 225 to 228 °C.
On the same count and under the same terms, in the case of `Nc1nccc(-c2oc3cccnc3c2-c2ccc(F)cc2)n1` [compound 103, 2-(2-Aminopyrimidin-4-yl)-3-(4-fluorophenyl)-furo[3,2-b]pyridine] it was 252.9 to 253.7 °C.
With `Fc1ccc(-c2c(-c3ccncc3)[nH]c3cccnc23)cc1` [compound 6, 3-(4-Fluorophenyl)-2-(pyridin-4-yl)-1H-pyrrolo[3,2-b]pyridine], the melting point was > 285 °C. For the same compound, in data set [3], the “% Inhibition (TNF-α content in test group relative to vehicle treated group)” value is recorded as 68%.
In turn, `COn1c(-c2ccncc2)c(-c2ccc(F)cc2)c2ncccc21` [compound 2, 3-(4-Fluorophenyl)-1-methoxy-2-(pyridin-4-yl)-1H-pyrrolo[3,2-b]pyridine] yielded a melting point of 168 to 171.5 °C. The IC50 in data set [1] is 68 nM. In addition, the IC50 in data set [2] is 460 nM. Besides, the “% Inhibition (TNF-α content in test group relative to vehicle treated group)” value in data set [3] came to 75%.
In turn, `Fc1ccc(-c2c(-c3ccncc3)n(OCCN3CCOCC3)c3cccnc23)cc1` [compound 3, 3-(4-Fluorophenyl)-1-[2-(morpholin-4-yl)ethoxy]-2-(pyridin-4-yl)-1H-pyrrolo[3,2-b]pyridine] gave a melting point of 139 to 141 °C. Besides, the IC50 in data set [1] was found to be 221 nM. In data set [3], the “% Inhibition (TNF-α content in test group relative to vehicle treated group)” value was found to be 56%.
`Fc1ccc(-c2c(-c3ccncc3)[nH]c3ccncc23)cc1` [compound 105, 3-(4-Fluorophenyl)-2-(pyridin-4-yl)-1H-pyrrolo[3,2-c]pyridine] returned a melting point of 256 to 257 °C.
On to `Fc1ccc(-c2c(-c3ccncc3)n(CCN3CCCCC3)c3cccnc23)cc1` [compound 9, 3-(4-Fluorophenyl)-1-[2-(piperidin-1-yl)ethyl]-2-(pyridin-4-yl)-1H-pyrrolo[3,2-b]pyridine], for which the melting point is 148.1 to 153.3 °C. Besides, the IC50 in data set [2] was found to be 300 nM.
Regarding `Fc1ccc(-c2c(-c3ccnc(Cl)n3)oc3cccnc23)cc1` [compound 102, 2-(2-Chloropyrimidin-4-yl)-3-(4-fluorophenyl)-furo[3,2-b]pyridine], the melting point fell in the range of 224.8 to 225.2 °C.
In the case of `Fc1ccc(-c2c(-c3ccncc3)[nH]c3nccnc23)cc1` [compound 106, 7-(4-Fluorophenyl)-6-(pyridin-4-yl)-5H-pyrrolo[2,3-b]pyrazine], the IC50 was determined as 120 nM in data set [1] and 1100 nM in data set [2].
Compound `Fc1ccc(-c2c(-c3ccncc3)oc3cccnc23)cc1` [compound 101, 3-(4-Fluorophenyl)-2-(pyridin-4-yl)-furo[3,2-b]pyridine] registered a melting point of 141 to 143 °C. In addition, the IC50 in data set [1] was 85.5 nM. In addition, the “% Inhibition (TNF-α content in test group relative to vehicle treated group)” value in data set [3] came out at 86%.
As to `Fc1ccc(-c2c(-c3ccncc3)n(CCN3CCOCC3)c3cccnc23)cc1` [compound 8, 3-(4-Fluorophenyl)-2-(pyridin-4-yl)-1-[2-(morpholin-4-yl)ethyl]-1H-pyrrolo[3,2-b]-pyridine], the melting point was 171.2 to 173 °C.
Still for that read-out and setting: in the case of `CCn1c(-c2ccncc2)c(-c2ccc(F)cc2)c2ncccc21` [compound 7, 1-Ethyl-3-(4-fluorophenyl)-2-(pyridin-4-yl)-1H-pyrrolo[3,2-b]pyridine] it was 204 to 206 °C.
With `OCCNc1cc(-c2[nH]c3nccnc3c2-c2ccc(F)cc2)ccn1` [compound 112], the IC50 turned out to be 34.4 nM in data set [1] and 241 nM in data set [2].
Compound `Fc1ccc(-c2c(-c3ccncc3)n(OCCN3CCCCC3)c3cccnc23)cc1` [compound 4, 3-(4-Fluorophenyl)-1-[2-(piperidin-1-yl)ethoxy]-2-(pyridin-4-yl)-1H-pyrrolo[3,2-b]pyridine] displayed a melting point of 95.9 to 98.7 °C.
Compound `Fc1ccc(-c2c(-c3ccncc3)n(OCCN3CCCC3)c3cccnc23)cc1` [compound 5, 3-(4-fluorophenyl)-2-(pyridin-4-yl)-1-[2-(pyrrolidin-1-yl)ethoxy]-1H-pyrrolo[3,2-b]pyridine] showed a melting point of 123 to 129 °C. Besides, the IC50 in data set [1] was found to be 246 nM. Also, the IC50 in data set [2] came to 120 nM.
